Laboratory results as given in a melting point compilation (Tetko et al.; mined from patent text by program, amines drawn as free bases though some values may be those of a salt).

Row | SMILES | melting point [°C]
1 | Nc1cc(OC(F)(F)C(F)Cl)c(OC(F)(F)C(F)Cl)cc1N (centres undefined) | 58 to 60
2 | CCNc1nc(Br)cn2c(Br)cnc12 | 131
3 | COc1c(F)cc(Cn2cnnc2S)cc1F | 124 to 126
4 | CC(C)C[C@H](N)C(=O)NCCNC(=O)OCc1ccccc1 | 148 to 149
5 | CC1CN(C(=O)NC(CS)Cc2ccccc2)CC(C)O1 (single isomer, unassigned; (+)) | 120 to 122
6 | Cn1c(C(F)(F)F)cc(=O)n(-c2ccc3snc(C(Cl)Br)c3c2)c1=O (centres undefined) | 93 to 96
7 | CCCCCCCCCCCCc1cc(C)on1 | 35 to 38
8 | CC(C)CCCC(C)CCCC(C)CCCC(C)CCP(=O)(O)O (centres undefined) | 69 to 72
9 | COc1ccc(-c2c(NC(C)C(C)(C)C)c(=O)c2=O)cc1 (centres undefined) | 179 to 181
10 | O=C1Cc2cc(Br)ccc2O1 | 147 to 148
11 | COC(=O)c1cc(OC)c(O)cc1[N+](=O)[O-] | 101 to 102
12 | NC(=O)N(O)CCn1cc(Sc2ccccc2)c2ccccc21 | 95 to 99
13 | CC(C)(CCCCOCCCc1ccccc1)NCc1c(CO)ccc(O)c1CO | 67 to 69
14 | CCCCSC(Cn1cncn1)c1ccc(Cl)cc1Cl (centres undefined) | 143
15 | O=C1CCC(=O)N1Cn1nnc(-c2ccnc(-c3nnn(CN4C(=O)CCC4=O)n3)c2)n1 | 190 to 192
16 | CCOC(=O)CNC(=O)COc1ccc(C=O)cc1 | 94.5 to 95.5
17 | CC(C)(CCl)C(=O)N(O)Cc1ccccc1 | 90 to 92
18 | C[Si](C)(C)CCc1cn(-c2c(Cl)cc(C(F)(F)F)cc2Cl)nc1C#N | 128 to 129
19 | CC(C)CNC(=O)C(C)NC(=O)C(C)NC(=O)C(C)NC(=O)CCC(=O)O (centres undefined) | 283 to 286
20 | Cc1cc(C)nc(-n2ncnc2N)n1 | 230 to 232
21 | CC(C)CC(NC(=O)C(C)S)C(=O)O (centres undefined) | 77 to 84
22 | O=S1(=O)N=CN(C2CC2)c2cc(Br)ccc21 | 268 to 271
23 | CON=C(C(=O)O)c1csc(NC(=O)CCl)n1 | 182 to 183

Row | SMILES | melting point [°C]
24 | O=C1c2ccccc2OC2=CCON12 | 144 to 148
25 | CCOC(=O)c1cccc(C(=O)O)c1 | 131 to 132
26 | CON=C(C(=O)O)c1nc(NC=O)sc1Cl | 175 to 177
27 | COc1cc(C(C)C)c2c(c1)S(=O)(=O)N(COC(=O)c1c(C)nn(-c3ccccc3)c1C)C2=O | 167 to 169
28 | Cc1cccc(-c2[nH]c(C(C)C)nc2-c2cccc(-c3ccsc3)c2)n1 | 83 to 85
29 | Cc1cccc(NC#N)c1N1CCOCC1 | 137 to 138
30 | Cc1cc2c(c(C3=NNC(=O)CC3C)c1)OCCN2 (centres undefined) | 160 to 162
31 | CCOC(=O)c1cn(C2CCCO2)c(=O)[nH]c1=O (centres undefined) | 125
32 | C[Si](C)(C)C#Cc1cc2cccnc2c(-c2cccc([N+](=O)[O-])c2)n1 | 160 to 163
33 | CNC(=O)Cc1ccccc1O | 105 to 106
34 | COc1cc2cc(C(=O)CCC(=O)O)sc2cc1OC | 177 to 178
35 | CC(C)NCC(O)COc1ccc(OCCOCC2CCC2)cc1 (centres undefined) | 56
36 | CC(C)(C)c1ccc(C(N)=O)cc1N | 140 to 142
37 | COc1cccc(-n2c(-c3sc(Nc4ccccc4)nc3C)nc3ccccc3c2=O)c1 | > 275
38 | CCOc1ccnc(F)c1 | 35 to 36
39 | CCOC1=NS(=O)(=O)c2cc(NC(=O)CC)ccc21 | 188 to 192
40 | CC(C)(C)c1cc(C=[N+]([O-])C(C)(C)C)c(O)c(C(C)(C)C)c1 | 235
41 | COc1c(NOCc2ccc(C(C)(C)C)cc2)ccnc1C | 113
42 | Nc1ccnc(/C=C/c2ccccc2)c1 | 164 to 165
43 | O=C(C=Cc1ccccc1)NNC(=O)c1ccccc1O | 271
44 | O=CC[C@@H](O)[C@H](O)[C@H](O)CO | 146 to 149
45 | Cc1ccn2cc(CCc3ccc4nc(N)oc4c3)nc2c1 | 262 to 264

Further lines, results first:

Row | melting point [°C] | SMILES
46 | 91 to 97 | COc1cc(C(=O)NS(=O)(=O)c2ccccc2Br)ccc1Cc1cccc2ccc(CCCCC(=O)N(C)C)cc12
47 | 110 to 112 | COc1ccc2c(c1)CCC1=C2CCC2(C)C(O)CCC12 (centres undefined)
48 | 217 to 219 | O=C(NN=C1c2cccc(F)c2SCC1c1ccc(F)cc1)Nc1ccc(C(F)(F)F)cc1 (centres undefined)
49 | 159 to 162 | O=c1c2cccc3c2n(c(=O)n1CC(O)CO)-c1cc(C(F)(F)F)ccc1S3 (centres undefined)
50 | 152 | COc1ccc2ccc(N3C(=O)c4ccccc4C3CC(=O)CCCO)nc2n1 (centres undefined)
51 | 90 to 92 | COC(=O)c1c(C)sc2cc(CCn3ccnc3)ccc12
52 | 146 to 149 | COc1cccc2cccc(S(=O)(=O)N(C)C)c12
53 | 124 to 127 | CN1CCSC1=NC(=Nc1ccc(Cl)cc1)N1CCCC1
54 | 152 to 153 | CCC(C)(Oc1ccc(CNc2ccc(Cl)cc2)cc1)C(=O)O (centres undefined)
55 | 109 to 111 | Cn1c(C(F)(F)F)cc(=O)n(-c2ccc3snc(CN(C(=O)OC(C)(C)C)S(C)(=O)=O)c3c2)c1=O
56 | 164 to 168 | Cc1nc(N)nc(N)c1CCC(C)c1ccc(Cl)cc1Cl (centres undefined)
57 | 236 to 237 | CCNc1cc(C(=O)O)cc(S(N)(=O)=O)c1Oc1ccccc1
58 | 93 to 95 | CC(C)n1nc(-c2ccccc2)c(-c2ccc(F)cc2)c1CBr
59 | 151 to 152 | O=S(=O)(c1ccc(Cl)cc1)C(c1ccc(CO)cn1)c1cc(F)ccc1F (centres undefined)
60 | 208 to 209 | CC(=O)CNC(=O)Nc1cc(-c2c(-c3ccc(F)c(C)c3)nc3cccnn23)ccn1
61 | 173 to 176 | ON=C1CCC(C2CCCCC2)=C1c1ccc(F)cc1
62 | 145 to 150 | O=Cc1cc2c3ccccc3ccc2c2occc12
63 | 89 to 91 | CCOCc1cc(N2C(=O)C3=C(CCCC3)C2=O)c(F)cc1Cl
64 | 207 to 209 | CCNC(=O)c1ccc(-c2ccc3nnn(Cc4ccc5ncccc5c4)c3n2)cc1F
65 | 184 to 185 | Cc1nc(N2CCN(Cc3ccc(OC(F)(F)F)cc3)C2=O)sc1C(=O)NCCc1ccccc1

Row | melting point [°C] | SMILES
66 | 88 to 92 | CN(C)CC(=O)N1CCC(c2cc(F)ccc2F)(S(=O)(=O)c2ccc(Cl)cc2)CC1
67 | 126 to 127 | COc1ccc2c(c1)C(C(=O)O)CCC2 (centres undefined)
68 | 141 to 142 | COc1cc(C=O)ccc1OCc1cn(-c2ccccn2)nc1C
69 | 127 to 128 | COc1ccc(C(=O)Nc2ccccc2CCC2CCCCN2C)cc1 (centres undefined)
70 | 123 to 124 | COc1ccc(C(=O)N2CSCC2=O)cc1
71 | 210 to 212 | Cc1ccc2ccc(C(N)=O)cc2c1
72 | 154 to 156 | O=C(NCc1ccc(F)cc1)Nc1ccc(CN2C(=O)[C@H]3CCC[C@H]3N(C(=O)CN3C(=O)c4ccccc4C3=O)c3ccccc32)cc1 (relative stereo)
73 | 159 to 161 | CCOCc1nc2c(N)nc3ccccc3c2n1CC1(OCCS(C)(=O)=O)CCCCC1
74 | 148 to 150 | CC(=O)Nc1ccc2c(c1)N(C1CCN(CCc3ccc(F)cc3)CC1)CC2
75 | 82 to 83 | C=CCN(C(=O)OCc1ccccc1)c1cc(F)c(-c2ccncc2)c(F)c1
76 | 324 to 327 | Oc1ncc(-c2ccc(Cl)cc2)cn1
77 | 201 to 203 | Cc1ccc(-n2nc(-c3ccc(O)cc3)c3cccnc32)cc1
78 | 160 to 166 | CCCc1c(OCCCOc2ccc(O)cc2)ccc2c1OC(CCC(=O)O)(CCC(=O)O)CC2=O
79 | 92 | CCc1ccc(C2CCCN2S(=O)(=O)c2ccc(C)cc2)cc1 (racemic)
80 | 192 to 194 | N#CNC(=NC1CCN(Cc2ccccc2)CC1)N1CCc2ccccc2CC1
81 | 130 to 132 | CCOC(=O)C(C)OCc1cc2cc(C(F)(F)F)ccc2n1S(=O)(=O)c1cc(OC)ccc1OC (centres undefined)
82 | 152 to 153 | CCOCCc1nc(NS(=O)(=O)c2cccc(Cl)c2C)sc1CN(C)C
83 | 200 to 202 | CC1(C)CC2(CC(C)(C)c3ccc(Oc4ccc([N+](=O)[O-])cc4)cc32)c2cc(Oc3ccc([N+](=O)[O-])cc3)ccc21
84 | 99 to 100 | CC(C)(C=O)C(=O)Nc1ccc(Cl)cc1
85 | 217 to 218 | COC(=O)c1c(Cc2ccc(S(C)(=O)=O)nc2)c(=O)c2ccc(C)nc2n1-c1ccccc1

Row | melting point [°C] | SMILES
86 | 136 to 137 | O=C1N(Cc2noc(C3CC3)n2)c2ccccc2C12COc1cc3c(cc12)OCO3 (centres undefined)
87 | 75 to 76.5 | C=CCOc1ccc(Cl)cc1NC(=O)Cc1ccc(OC)c(OC2CCCC2)c1
88 | 215 to 220 | NC(=O)C(c1ccccc1)(c1ccccc1)c1ccc(N)cn1
89 | 105 to 106 | Cc1nc(NCCc2ccccc2)c2c(n1)N(c1ccccc1)CC2
90 | 126 to 127 | OC[C@@H]1CNCc2cc3ccc(C(F)(F)F)cc3n21
91 | 202 to 203 | COc1cc2c(cc1Nc1ncc(Cl)c(Nc3ccc(OC)c4c3C(=O)N(C)C4)n1)CCN(CC(=O)N(C)C)CC2
92 | 247 to 248 | Cc1ccc(C(=O)c2[nH]c3ccc(Cl)cc3c2CC(=O)O)nc1
93 | 160 to 161 | CN(C)CCNC(=O)Cc1ccc(OCc2ccc(-c3ccccc3)cc2)cc1
94 | 95 to 96 | CCOC(Nc1ccccc1)(OCC)c1ccnc(C(=O)c2ccc(C)cc2)c1
95 | 160 to 163 | CN1CCN(CCCNc2sc(-c3cc[nH]n3)c3c2C(=O)CC(C)(C)C3)CC1
96 | 129 to 131 | S=C(Nc1ccccc1)N(Cc1ccc(Br)cc1)C1CCCC1
97 | 93 | COc1cccc(-c2cccc3c2CCn2cc(-c4ccccc4)nc2C3OC2CCN(C)CC2)c1 (centres undefined)
98 | 85 | CCc1cc(OC)cc2nc(-c3ccc(OC)cc3)oc12
99 | 164 | Cc1ccc(C2COc3c(ccc(O)c3O)C2)cc1 (centres undefined)
100 | 195 to 197 | O=[N+]([O-])c1cc(Sc2ccc(Cl)cc2)[nH]c1-c1ccc(Cl)cc1
101 | 105 to 107 | O=Cc1nc2cc(F)ccc2s1
102 | 146 to 152 | COc1ccc(N2CCN(c3c(C)c(C)c4c(c3C)CC(C)(CNC(C)=O)O4)CC2)cc1 (centres undefined)
103 | 174 to 176 | CCn1c(C(=O)c2cc(C)cc(C=CC#N)c2)c(C(C)C)c(=O)[nH]c1=O
104 | 102 to 103 | Cc1cc2c(s1)CCCC1CC(=O)N(c3ccccc3)N=C21 (centres undefined)
